Test results from article PMC8406801, “Naringenin Inhibits Platelet Activation and Arterial Thrombosis Through Inhibition of Phosphoinositide 3-Kinase and Cyclic Nucleotide Signaling” (Frontiers in Pharmacology, 2021).
“And” between values parts separate entries of the source, which are not always exact repeats. Identical values can stand only once.

What was measured:
[1] = system: Akt Thr308 phosphorylation; assay: Ex vivo immunoblotting of phospho-Akt (Thr308) in ADP-stimulated PRP of treated rats; set-up: species or system rat; details: for p-Akt Thr308 / t-Akt (Fold to Control) / p-Akt Thr308 / t-Akt (raw data): ex vivo, Figure 8D
Procedure: Male SD rats were randomly divided into 5 groups with 6 rats in each group. […] Sixty minutes after the last sample treatment, blood was drawn from the abdominal aorta of rats into the siliconized vacutainers containing 1:9 (v/v) 3.8% sodium citrate. The collected blood was centrifuged at 100 × g for 10 min at room temperature to obtain PRP. […] The platelet counts of PRP were adjusted to 4×10^8 cells/mL using PPP. PRP was incubated for 5 min at 37°C and then stimulated by ADP (5 μM). The maximum platelet aggregation rate was determined as mentioned above.
(§1) For in vitro platelet aggregation, aliquots of washed platelets were preincubated with vehicle or various concentrations of naringenin for 5 min and stimulated with ADP (10 μmol/L) under stirring at 37°C for 5 min. For ex vivo platelet aggregation, PRP was incubated at 37°C for 5 min and stimulated with ADP (5 μmol/L) under stirring at 37 °C. The platelet aggregation was terminated by adding ethylenediaminetetraacetic acid (EDTA; 10 mM). Total protein was prepared using RIPA lysis buffer and protein content was determined by bicinchoninic acid (BCA) protein assay kit. Equal amounts of platelet proteins (30 μg) were separated on 10% SDS polyacrylamide gel electrophoresis (SDS-PAGE) and then transferred to poly vinylidene difluoride (PVDF) membranes and subjected to western blot. Blots were blocked with TBS-Tween 20 containing 5% BSA and probed with primary antibodies diluted in blocking solution at 4°C overnight followed by incubation with the corresponding HRP secondary antibodies. The protein bands were visualized using enhanced chemiluminescence (ECL).
Blood was collected and PRP was obtained after the last treatment. Platelet aggregation was induced by ADP (5 μmol/L) (A). Data are expressed as means ± SD (n = 6). After ADP stimulation, platelet proteins were then extracted and analyzed by immunoblotting using PI3Kp110β antibody (B) and phospho-specific antibodies such as Akt^Ser473 (C), Akt^Thr308 (D) and ERK1/2^Thr202/Tyr204 (E). Total level of GAPDH was measured on each sample as a loading control. The blots shown are representative of three separate experiments. The relative protein expression levels were quantified by ImageJ 1.47v software. The level of relative protein expression obtained with vehicle control was taken as 1. R represents the level of relative protein expression in resting platelets. Data are expressed as means ± SD (n = 3). *p < 0.05, **p < 0.01, ***p < 0.001 compared with the vehicle control group (Con).
To further investigate the antiplatelet mechanisms of naringenin ex vivo, several signaling molecules such as PI3Kp110β, Akt and ERK were detected. After oral administration of naringenin (200, 400, and 800 mg/kg) to rats for 7 days, rat PRP was prepared and stimulated by ADP (5 μmol/L), and platelets were lysed to determine protein phosphorylation levels using western blot.

[2] = system: P-selectin exposure on washed platelets; assay: ADP-stimulated P-selectin exposure (flow cytometry); type: cell-based, rat; details: ADP 10 μM; for P-selectin exposure: mean ± SD, n = 3, 86.06 ± 9.05% without naringenin; for P-selectin (%): single replicates
Procedure: Flow cytometric assays were performed as described previously ([Wang et al., 2019]). ADP-stimulated P-selectin exposure and fibrinogen binding were determined in washed platelets. […] The platelets were immediately incubated with PE-labeled CD62P or FITC-labeled fibrinogen in the dark at room temperature for 15 min. The cells were finally fixed with 1% (v/v) paraformaldehyde prior to analysis using an Accuri C6 flow cytometer (BD Biosciences, United States).

[3] = system: Akt Ser473 phosphorylation; assay: Immunoblotting of phospho-Akt (Ser473) in ADP-stimulated washed platelets; type: cell-based, rat; details: single replicates; for p-Akt Ser473 / t-Akt: raw data
Procedure: as §1
FIGURE 4 Naringenin inhibits PI3K-mediated signaling in ADP-induced platelets. Washed rat platelets were preincubated without or with naringenin at 37°C for 5 min, and then stimulated with ADP (10 μmol/L) under stirring for 5 min. Platelet proteins were then extracted and analyzed by immunoblotting using PI3Kp110β antibody (A) and phospho-specific antibodies such as Akt^Ser473 (B), Akt^Thr308 (C), ERK1/2^Thr202/Tyr204 (D) and GSK3β^Ser9 (E). Total level of GAPDH was measured on each sample as a loading control. The blots shown are representative of three separate experiments. The relative protein expression levels were quantified by ImageJ 1.47v software. The level of relative protein expression obtained with vehicle control (0 μM) was taken as 1. R represents the level of relative protein expression in resting platelets. Data are expressed as means ± SD (n = 3). *p < 0.05, **p < 0.01, ***p < 0.001 compared with the vehicle control group.
FIGURE 5 Effects of naringenin combined with PI3K pan inhibitor LY294002 on platelet aggregation and Akt phosphorylation. Washed rat platelets were preincubated with naringenin (200 μmol/L) alone, the PI3K pan inhibitor LY294002 (5 μmol/L) alone or both for 5 min prior to ADP (10 μmol/L) activation. After stimulation with ADP, platelet aggregation was quantified and expressed as a percentage (A). Data are expressed as means ± SD (n = 6). ***p < 0.001 compared with the ADP-treated group, ^### p < 0.001 compared with naringenin alone or LY294002 alone. Platelet proteins were then extracted and specific antibodies were used to measure the level of total and phosphorylated Akt (B). The blots shown are representative of three separate experiments. The relative protein expression levels were quantified by ImageJ 1.47v software. The level of phosphorylation obtained in the ADP-treated group was taken as 1. Data are expressed as means ± SD (n = 3). ***p < 0.001 compared with the ADP-treated group, ^### p < 0.001 compared with naringenin alone or LY294002 alone.

[4] = system: intracellular calcium in washed platelets; assay: Calcium mobilization in ADP-induced platelets (Fluo 3-AM, flow cytometry); type: cell-based, rat; details: for Calcium mobilisation (%): ADP 10 μM, single replicates
Procedure: Calcium mobilization in ADP-induced platelets was measured using flow cytometry. Washed platelets were incubated with Fluo 3-AM (5 μM) at 37°C for 30 min and washed. The Fluo 3-loaded platelets were preincubated with vehicle or different concentrations of naringenin at 37°C for 5 min in the presence of 1 mM CaCl2 and then stimulated with ADP (10 μM) for 5 min. The fluorescence intensity was analyzed using an Accuri C6 flow cytometer.

[5] = Figure 5B: ADP 10 μM, naringenin 200 μM alone

Structure (SMILES): O=C1C[C@@H](c2ccc(O)cc2)Oc2cc(O)cc(O)c21 [Naringenin]
- p-Akt Thr308 / t-Akt (Fold to Control) ([1]; naringenin 200mg/kg): 0.5157 and 0.5526 and 0.5291
- p-Akt Thr308 / t-Akt (raw data) ([1]; naringenin 200mg/kg): 0.4340 and 0.4650 and 0.4452
- p-Akt Thr308 / t-Akt (Fold to Control) ([1]; naringenin 400mg/kg): 0.3273 and 0.3649 and 0.3395
- p-Akt Thr308 / t-Akt (raw data) ([1]; naringenin 400mg/kg): 0.2755 and 0.3071 and 0.2857
- p-Akt Thr308 / t-Akt (Fold to Control) ([1]; naringenin 800mg/kg): 0.3636 and 0.3541 and 0.3985
- p-Akt Thr308 / t-Akt (raw data) ([1]; naringenin 800mg/kg): 0.3060 and 0.2979 and 0.3354
- phosphorylation of Akt at Thr308 in rat PRP ex vivo ([1]; rats, oral 200, 400, and 800 mg/kg for 7 days, ADP 5 μmol/L): significantly suppressed
- P-selectin exposure ([2]; 200 μM): 58.33 ± 7.86%
- P-selectin (%) ([2]; 200 μM): 50.70% and 58.70% and 65.60%
- P-selectin exposure ([2]; 400 μM): 35.12 ± 11.91%
- P-selectin (%) ([2]; 400 μM): 22.54% and 46.23% and 36.58%
- P-selectin exposure ([2]; 800 μM): 31.56 ± 7.26%
- P-selectin (%) ([2]; 800 μM): 24.10% and 32.22% and 38.35%
- p-Akt Ser473 / t-Akt ([3]; ADP 10 μmol/L, 100 μM): 0.1822 and 0.1825 and 0.1171
- p-Akt Ser473 / t-Akt (Fold to ADP only) ([3]; ADP 10 μmol/L, 100 μM): 0.4309 Fold to ADP only and 0.4315 Fold to ADP only and 0.2769 Fold to ADP only
- p-Akt Ser473 / t-Akt ([3]; ADP 10 μmol/L, 200 μM): 0.1611 and 0.1671 and 0.0697
- p-Akt Ser473 / t-Akt (Fold to ADP only) ([3]; ADP 10 μmol/L, 200 μM): 0.3810 Fold to ADP only and 0.3953 Fold to ADP only and 0.1648 Fold to ADP only
- p-Akt Ser473 / t-Akt ([3]; ADP 10 μmol/L, 400 μM): 0.1761 and 0.0969 and 0.0748
- p-Akt Ser473 / t-Akt (Fold to ADP only) ([3]; ADP 10 μmol/L, 400 μM): 0.4165 Fold to ADP only and 0.2292 Fold to ADP only and 0.1768 Fold to ADP only
- p-Akt Ser473 / t-Akt ([3]; ADP 10 μmol/L, 800 μM): 0.0725 and 0.0226 and 0.0288
- p-Akt Ser473 / t-Akt (Fold to ADP only) ([3]; ADP 10 μmol/L, 800 μM): 0.1714 Fold to ADP only and 0.0534 Fold to ADP only and 0.0681 Fold to ADP only
- p-Akt Ser473 / t-Akt [3, 5]: 0.5270 and 0.4157 and 0.3312
- p-Akt Ser473 / t-Akt (Fold to ADP only) [3, 5]: 0.6055 Fold to ADP only and 0.4777 Fold to ADP only and 0.3805 Fold to ADP only
- mobilization of intracellular calcium induced by ADP ([4]; 400 and 800 μM): significantly prevented
- Calcium mobilisation (%) ([4]; 200 μM): 46.06% and 50.52% and 43.09%
- Calcium mobilisation (%) ([4]; 400 μM): 35.32% and 30.53% and 43.33%
- Calcium mobilisation (%) ([4]; 800 μM): 34.54% and 21.04% and 26.06%
